Test results: the NIST ThermoML archive (doi:10.1016/j.jct.2008.05.012)
Numbers after ± are expanded uncertainties.

Settings: Crystal; Heating/Cooling curves

Compound	Normal melting temperature
CCC1COC(=O)O1 (stereo unspecified) [1,2-butylene carbonate]	-52.81 ± 1.2 °C
COCCOC [1,2-dimethoxyethane]	-69.74 ± 0.21 °C
C1COCCO1 [1,4-dioxane]	11.33 ± 0.41 °C
CCn1cc[n+](C)c1.O=S(=O)([O-])C(F)(F)F [1-ethyl-3-methylimidazolium trifluoromethanesulfonate]	-10.92 ± 0.6 °C
COCCC#N [3-methoxypropanenitrile]	-63.62 ± 0.53 °C
[2H]C([2H])([2H])S(=O)C([2H])([2H])[2H] [(methyl sulfoxide)-d6]	20.2 ± 0.21 °C
CC#N [acetonitrile]	-44.08 ± 0.41 °C
CCOC(=O)OCC [diethyl carbonate]	-77.29 ± 0.6 °C
C[N+](=O)[O-] [nitromethane]	-29.79 ± 0.41 °C
O=C1CCCO1 [γ-butyrolactone]	-44.71 ± 0.21 °C

The remaining lines, values ahead:

Normal melting temperature	Compound
3.91 ± 0.6 °C	COC(=O)OC [dimethyl carbonate]
17.80 ± 2 °C	C[S+](C)[O-] [dimethyl sulfoxide]
-55.01 ± 0.41 °C	CCOC(=O)OC [ethyl methyl carbonate]
-73.44 ± 0.09 °C	CCOC(=O)CC [ethyl propanoate]
35.38 ± 0.21 °C	O=C1OCCO1 [ethylene carbonate]
12.47 ± 0.21 °C	CCCCCCCC[N+](C)(CCCCCCCC)CCCCCCCC.O=C([O-])C(F)(F)F [methyltrioctylammonium trifluoroacetate]
